Measured values published in article PMC11219860, “A chemogenetic approach for dopamine imaging with tunable sensitivity” (Nature Communications, 2024).

Legend:
[1] = system: dLight1.3b-expressing HEK293T sniffer cells on primary DArgic neurons; experiment: DA release imaging from cultured DArgic neurons with dLight1.3b sniffer cells; type: cell-based, mouse; settings: 4-AP 250 µM in perfusion
Experimental: Primary DA (DA) neurons were grown on a layer of cortical astrocytes. The astrocytes were first prepared from P0-P2 C57BL6 mice, grown in T75 flask and then seeded on collagen/poly-L-lysine coated 15 mm glass coverslips at a concentration of 100,000 cells/ml. The cells were allowed to grow until close to confluence before the seeding of neurons. Primary DArgic neurons were prepared and cultured from P0-P2 mouse pups using a previously described protocol. Briefly, the ventral midbrain of P0-P2 pups was dissected from DAT^IREScre x Ai9 mice in which DA neurons expressed the red fluorescent protein tdTomato. These were produced by crossing DAT^IREScre mice (catalog #006660, Jackson Labs[31]) to Ai9/tdTomato mice (catalog #007905, Jackson Labs[32]). Both of these lines were on a C57BL/6 J background. Midbrain cells were seeded at a concentration of 240,000 cells/ml on top of the astrocyte monolayer and allowed to grow for 10 days (10 DIV). Two days before imaging, expression of dLight1.3b was induced in stable HEK cells with doxycycline. One day prior to imaging, HEK cells were lifted using trypsin, and 150,000 HEK cells were seeded on top of 10 DIV-cultured neurons in doxycycline-supplemented neuronal medium. Imaging was performed on a confocal microscope (Nikon A1 HD25) using a 40X dry objective and a 488 nm laser to excite dLight1.3b and a 546 nm laser to activate tdTomato and identify DA neurons. On the day of imaging, physiological saline containing drugs at the specified concentration ([…], Sigma; SCH23390, Sigma; DETQ, Enamine) were applied on the culture using a computer-controlled perfusion system (Automate system). A field containing one or more DA neurons was selected based on the tdTomato signal. […]
Event detection was performed using a thresholding algorithm adapted from[80]. In brief, the recorded field of view was divided into square ROIs of 55 um x 55 um size. […] A rolling standard deviation was calculated with the same window size. Events were defined as timepoints at which the fluorescence intensity reading exceeds the averaged intensity by 5 standard deviations.

dLight1.3b = dLight1.3b (Homo sapiens, UniProt P21728); experiment: DA titrations on dLight1.3b-expressing HEK293 cells (confocal fluorescence imaging); type: cell-based; settings: D1-PAM 5 μM
Experimental: Cells were transfected at 50–60% confluency in glass-bottomed dishes (either individually or in 24-well plates) using the Effectene transfection kit (Qiagen) according to manufacturer instructions, and imaged 24–48 h after transfection. The Flp-In™ T-REx™ 293 cells (Thermo Fisher) with a stably integrated dLight1.3b cassette[48] were cultured as follows: the cells were cultured using HEK293T cell medium with the addition of Blasticidin (15 µg/ml) and Hygromycin B (200 µg/ml). To induce the expression of dLight1.3b, doxycycline (500 ng/ml) was added to the culture medium for 24–48 hours. Before imaging, cells were rinsed with 1 mL of Hank’s Balanced Salt Solution (HBSS, Life Technologies) supplemented with Ca^2+ (2 mM) and Mg^2+ (1 mM), and imaged at room temperature with a final HBSS volume of either 100 µL for each individual 1.5 cm glass bottom dish, or 500 µL for 24-well plates. Time-lapse imaging was performed on an inverted Zeiss LSM 800 confocal microscope using a 488 nm laser and a 40X oil-based objective. During imaging, ligands were added in bolus on the cells using a micropipette to reach the final specified concentrations of ligand over the cells. For quantification, except otherwise noted, regions of interest (ROI) were selected manually using the threshold function of Fiji to isolate the cell membrane. Sensor response (∆F/F) was calculated as the following: (F(t)-F_base)/F_base with F(t) being the ROI fluorescence value at each time point (t), and F_base being the mean fluorescence of the 10-time points immediately prior to ligand addition.

DRD1-MSNs = experiment: Whole-cell electrophysiology of DRD1-MSNs in dorsal striatum brain slices; type: cell-based, mouse
Experimental: For experiments involving SKF38393 application, to identify DRD1 receptor (DRD1)-positive neurons in the dorsal striatum, DRD1:cre mice injected with AAV5-hSyn-dlox-ChrimsonR-tdTomato were used. 3–4 weeks after viral injection, mice were anesthetized with 5% isoflurane and euthanized by decapitation. […] Slices were kept at 34 °C for 10–20 minutes and then at room temperature until recordings. In the recording chamber, slices were superfused with ACSF at 30–32 °C. Patch pipettes (3–7 MΩ) were pulled from borosilicate glass pipettes (GC150T-10, Harvard Apparatus). The internal solution contained (in mM): potassium gluconate 130, MgCl2 4, MgATP 3.4, Na3GTP 0.1, creatine phosphate 10, HEPES 5, and EGTA 1.1. The membrane potential was measured using EPC 10 USB Patch Clamp Amplifiers (HEKA). The access resistance was monitored by a hyperpolarizing step of −10 mV. The identification of DRD1-positive neurons was performed by the presence of red fluorescence protein and photo-evoked current or potential (@2 Hz, 10 ms duration, 2 pulses or 500 ms continuous pulse. light source: Colibri 7, Zeiss; 630 nm wavelength, 1 mW). To assess the excitability of neurons, positive currents were injected (0–500 pA) and the number of action potentials was counted at each current step. To measure input resistance, negative currents were injected (−200 to 0 pA, every 50 pA, 500 ms), as previously described. The resting membrane potential was measured at 0 pA current input.
Action potentials were evoked by current injection (50–500 pA, 500 ms) in current-clamped neurons. Neurons were recorded from in the presence of picrotoxin (100 µM), CGP55485 (0.3 µM), DNQX (10 µM), and MK801 (10 µM) to block GABAA, GABAB, AMPA and NMDA receptors, respectively. DA (10 µM) was applied to brain slices in the presence of cocaine (5 µM) to prevent reuptake.

msDRD1 = target: T1, msDRD1 (Mus musculus, UniProt Q61616); settings: rodent (rat or mouse); ref Hao et al., 2019; Wang et al., 2018; cited from earlier work
T1 construct: expressed in transfected cells; host or cells: HEK293T
T1 sequence (Q61616 whole entry): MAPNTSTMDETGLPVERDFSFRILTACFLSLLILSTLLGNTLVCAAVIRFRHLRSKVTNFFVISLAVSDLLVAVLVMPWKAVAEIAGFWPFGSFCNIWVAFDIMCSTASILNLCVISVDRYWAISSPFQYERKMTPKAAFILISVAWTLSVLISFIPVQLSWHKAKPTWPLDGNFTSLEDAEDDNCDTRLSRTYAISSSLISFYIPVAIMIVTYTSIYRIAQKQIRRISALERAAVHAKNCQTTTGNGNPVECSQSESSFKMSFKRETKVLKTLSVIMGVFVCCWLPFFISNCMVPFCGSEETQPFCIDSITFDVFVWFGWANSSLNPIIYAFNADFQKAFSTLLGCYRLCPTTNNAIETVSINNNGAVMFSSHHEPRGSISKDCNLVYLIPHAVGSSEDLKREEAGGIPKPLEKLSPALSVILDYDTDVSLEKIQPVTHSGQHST

human DRD1 (hmDRD1) = settings: human clones; ref Hao et al., 2019; Wang et al., 2018; cited from earlier work

For `Nc1ccncc1` [4-AP, 4-aminopyridine], the DA release events [1] was “larger localized DA release events started to become noticeable”.
With `CC(C)(C)C1CCc2c(sc(NC(=O)c3ccncc3)c2C(N)=O)C1` (stereo not shown) [MLS6585] the “effect on the DA sensitivity of dLight1.3b” value (dLight1.3b) was “did not have a noticeable effect”.
For `NCCc1ccc(O)c(O)c1` [DA, Dopamine], the “number of action potentials evoked by current injection” value (DRD1-MSNs; DA 10 µM bath application vs control) was “increased the number of action potentials”.
For `Cn1c2ccccc2c(=O)c2c(=O)n(-c3ccccc3)c(C3CCCCC3)nc21` [MLS1082], the “effect on the DA sensitivity of dLight1.3b” value (dLight1.3b) was “did not have a noticeable effect”.
In the case of `Oc1cc2c(cc1O)C(c1ccccc1)CNCC2` (stereo not shown) [SKF38393], the “firing rate during current-injection of DRD1-MSNs” value (DRD1-MSNs; SKF38393 1 µM superfusion) is reported as “significant increase”.
For `C[C@H]1c2cccc(CCC(C)(C)O)c2C[C@H](CO)N1C(=O)Cc1c(Cl)cccc1Cl` [LY315207, 2-(2,6-Dichlorophenyl)-1-((1S,3R)-5-(3-hydroxy-3-methylbutyl)-3-(hydroxymethyl)-1-methyl-3,4-dihydroisoquinolin-2(1H)-yl)ethan-1-one], the “partial potentiation of dopamine (% of max potentiation)” value (msDRD1) is listed as 45-53% and the “maximal potentiation of dopamine” value (human DRD1 (hmDRD1)) is listed as 75-85%.
